Laboratory results from PMC9303312, “Balancing Histone Deacetylase (HDAC) Inhibition and Drug‐likeness: Biological and Physicochemical Evaluation of Class I Selective HDAC Inhibitors” (Chemmedchem, 2022).

How the values were obtained:
HDAC1 [1] = molecular target: T1, HDAC1 (Homo sapiens, UniProt Q13547); experiment: Binding kinetics via the Progression Method; type: biochemical; details: relationship between kobs and [I]; triplicates
Protocol: (§1) To determine the binding mechanism at the respective HDAC isoform, a series of progression curves were generated, using fixed concentrations of enzyme, substrate, and different inhibitor concentrations. The in situ AMC release was monitored continuously by fluorescence readings recorded every 30 s for 60 or 90 min at 37 °C. The data of each progression curve were fitted to the appropriate equation (Prism 9.1.0 for MacOS). For inhibitors showing slow‐binding Mechanism I&II (Figure 5) time‐dependent product formation follows Eq. 1: (Eq. 1) P=vsst+vin-vss/kobs1-e^-kobst
(§2) where [P] is the amount of generated AMC, which directly correlates with the amount of deacetylated substrate over time [t]. V in and v ss are the initial and final steady‐state velocities of product formation and k obs is the apparat first‐order rate constant for the conversion from the initial velocity to the steady‐state velocity. It characterizes the formation of an enzyme–inhibitor equilibrium.
Fast‐on/fast‐off inhibitors. […] In this case Eq. 1 simplifies as follows: (Eq. 2) P=vsst
Therefore, the deacetylation rate in absence (v 0) and presence (v i) of the inhibitor is constant over time. […] [I] and [S] are the inhibitor and substrate concentrations, respectively and K m is the Michaelis‐Menten constant.
Slow‐binding inhibitors. The slow‐binding Mechanisms I & II are distinguished by their respective relationships between k obs and the inhibitor concentration. For the single‐step slow‐binding Mechanism I the relationship between inhibitor concentration and k obs is linear. The association and dissociation rate constants (k 1 & k −1, see Figure 5) can be obtained by fitting k obs as a function of [I] to Eq. 4. (Eq. 4) kobs=k-1+k11+S/KmI
The secondary association and dissociation rate constants k 2 & k −2 (see Figure 5) as well as the equilibrium dissociation constant K i,1 of the initial inhibitor‐enzyme encounter complex [EI] can be obtained by fitting k obs as a function of [I] (Eq. 5. (Eq. 5) kobs=k-2+k2/I+Ki,11+S/KmI
Determination of binding kinetics via the Progression Method.[14] HDAC1 and HDAC3
deacetylase activities were evaluated at varying inhibitor concentrations. Appropriate inhibitor
concentrations were chosen based on the previously determined IC50 values. To ensure substrate
excess during the experiment, the substrate concentration was set to five times Km. Km was
determined using a series of substrate concentrations.
For the progression curves, the
respective enzyme was incubated with the fluorogenic substrate and inhibitor in assay buffer
(§3) 90 minutes at 37°C. The relationship between AMC concentration and relative fluorescence units
(RFU) was determined and the measured RFU were transformed into the respective AMC
concentration in µM. […]

HDAC2 = HDAC2 (Homo sapiens, UniProt Q92769); experiment: In vitro HDAC inhibition preincubation assay (ZMAL substrate)
Chain of HDAC2 (Q92769 whole entry): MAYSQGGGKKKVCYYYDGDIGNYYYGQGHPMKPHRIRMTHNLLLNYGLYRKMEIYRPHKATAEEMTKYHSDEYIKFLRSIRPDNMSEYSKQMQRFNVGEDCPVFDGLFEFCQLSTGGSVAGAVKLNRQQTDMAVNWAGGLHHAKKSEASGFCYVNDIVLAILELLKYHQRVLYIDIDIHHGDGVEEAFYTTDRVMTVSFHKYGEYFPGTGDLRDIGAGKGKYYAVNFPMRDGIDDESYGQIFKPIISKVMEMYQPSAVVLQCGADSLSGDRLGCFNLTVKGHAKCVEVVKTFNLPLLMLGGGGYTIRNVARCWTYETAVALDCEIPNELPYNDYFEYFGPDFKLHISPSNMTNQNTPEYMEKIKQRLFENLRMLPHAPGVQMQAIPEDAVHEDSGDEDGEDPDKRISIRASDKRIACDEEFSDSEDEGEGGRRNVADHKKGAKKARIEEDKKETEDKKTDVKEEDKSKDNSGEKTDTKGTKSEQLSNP

HDAC3 [2] = molecular target: T2, HDAC3 (Homo sapiens, UniProt O15379); experiment: 100-fold Jump-Dilution experiments; type: biochemical; details: diluted inhibitor concentration as indicated per compound, vehicle [DMSO 1%] = 56.7
T2 sequence (O15379 whole entry): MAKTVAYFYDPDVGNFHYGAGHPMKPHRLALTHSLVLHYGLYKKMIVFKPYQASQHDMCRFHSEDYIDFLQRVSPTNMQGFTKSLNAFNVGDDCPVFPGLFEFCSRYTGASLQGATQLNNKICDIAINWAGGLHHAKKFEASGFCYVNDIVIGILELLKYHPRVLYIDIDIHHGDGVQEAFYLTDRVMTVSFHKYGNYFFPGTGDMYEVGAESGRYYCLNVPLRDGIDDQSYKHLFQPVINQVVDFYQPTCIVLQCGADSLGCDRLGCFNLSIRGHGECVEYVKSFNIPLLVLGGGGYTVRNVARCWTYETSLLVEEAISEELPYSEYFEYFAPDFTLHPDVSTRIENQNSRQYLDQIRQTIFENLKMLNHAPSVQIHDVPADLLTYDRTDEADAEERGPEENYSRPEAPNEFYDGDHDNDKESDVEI
T2 sequence (Q9Y618 395-489 partner limits assumed): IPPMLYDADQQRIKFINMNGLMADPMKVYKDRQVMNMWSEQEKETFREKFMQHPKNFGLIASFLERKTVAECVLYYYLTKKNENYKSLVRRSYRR

HDAC1 [3] = molecular target: T1, HDAC1; experiment: 100-fold Jump-Dilution experiments; type: biochemical; details: diluted inhibitor concentration as indicated per compound, vehicle [DMSO 1 %]=111.9
HDAC3 [4] = molecular target: T2, HDAC3; experiment: IC50-shift experiments (varied preincubation time); type: biochemical; details: triplicates
Protocol: into OptiPlate-96 black micro-plates (PerkinElmer).
Afterwards, the fluorogenic substrate ZMAL
The total assay volume (50 µL,
max. […] Subsequently, 50 µL trypsin solution (0.4
enzymes and the respective inhibitor dilutions were preincubated at 20 °C for 5 to 120 minutes.
Afterwards, the assay protocol was continued as stated above. Compounds were tested in
triplicates and the assay was rerun if necessary. The respective IC50 values and P95 confidence
intervals were determined using Prism 9 for MacOS.

physchem = details: 1-octanol/PBS buffer (mutually saturated), pH 7.4
HDAC3 [5] = molecular target: T2, HDAC3; experiment: Binding kinetics via the Progression Method; type: biochemical; details: relationship between kobs and [I]; triplicates
Protocol: as §1, §2
Fast‐on/fast‐off inhibitors. […]
deacetylase activities were evaluated at varying inhibitor concentrations. […]
concentrations were chosen based on the previously determined IC50 values. […]
determined using a series of substrate concentrations. […]
as §3
(RFU) was determined and the measured RFU were transformed into the respective AMC […]

HDAC1 [6] = molecular target: T1, HDAC1; experiment: IC50-shift experiments (varied preincubation time); type: biochemical; details: triplicates
HDAC3/NcoR2 = HDAC3/NcoR2 (Homo sapiens, UniProt O15379); experiment: In vitro HDAC inhibition preincubation assay (ZMAL substrate)
Chain of HDAC3/NcoR2 (O15379 whole entry): as the sequence (O15379 whole entry) above
Chain of HDAC3/NcoR2 (Q9Y618 395-489 partner limits assumed): as the sequence (Q9Y618 395-489 partner limits assumed) above

HDAC1 [7] = molecular target: T1, HDAC1; experiment: as above

T1 sequence (Q13547 whole entry): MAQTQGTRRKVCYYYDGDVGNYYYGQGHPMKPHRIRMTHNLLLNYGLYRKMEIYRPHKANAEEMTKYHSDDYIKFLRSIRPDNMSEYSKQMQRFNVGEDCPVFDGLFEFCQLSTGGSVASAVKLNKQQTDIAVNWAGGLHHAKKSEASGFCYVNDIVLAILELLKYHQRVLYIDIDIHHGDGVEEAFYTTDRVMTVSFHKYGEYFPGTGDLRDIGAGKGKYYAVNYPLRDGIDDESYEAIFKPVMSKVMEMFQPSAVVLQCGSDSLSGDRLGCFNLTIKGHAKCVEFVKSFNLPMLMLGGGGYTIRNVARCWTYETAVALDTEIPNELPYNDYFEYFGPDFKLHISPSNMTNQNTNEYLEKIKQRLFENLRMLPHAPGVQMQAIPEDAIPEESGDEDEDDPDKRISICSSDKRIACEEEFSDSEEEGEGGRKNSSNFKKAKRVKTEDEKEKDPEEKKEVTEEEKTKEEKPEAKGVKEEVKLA

CN(C)c1ccc(C(=O)N(CC(=O)NCc2ccccc2)Cc2ccc(C(=O)Nc3ccccc3N)cc2)cc1 [VK‐1, reference compound]
binding mechanism at HDAC1 (HDAC1 [1]): slow‐binding Mechanism II
IC50 (HDAC2): 128 ± 14.5 nM
Final slope of progression curve after 100-fold dilution (HDAC3) (HDAC3 [2]): 2.51 RFU*min-1
Final slope of progression curve after 100-fold dilution (HDAC1) (HDAC1 [3]): 39.2 RFU*min^−1
IC50 (HDAC3 [4]; HDAC3 IC50, preincubation 5 min, preincubation time 5 min at 20°C): 794 nM
IC50 (HDAC3 [4]; HDAC3 IC50, preincubation 30 min, preincubation time 30 min at 20°C): 432 nM
IC50 (HDAC3 [4]; HDAC3 IC50, preincubation 60 min, preincubation time 60 min at 20°C): 299 nM
IC50 (HDAC3 [4]; HDAC3 IC50, preincubation 120 min, preincubation time 120 min at 20°C): 171 nM
logD at 48 h (physchem): 3.19
binding mechanism at HDAC3 (HDAC3 [5]): slow-binding Mechanism II
IC50 (HDAC1 [6]; HDAC1 IC50, preincubation 5 min, preincubation time 5 min at 20°C): 93 nM
IC50 (HDAC1 [6]; HDAC1 IC50, preincubation 30 min, preincubation time 30 min at 20°C): 57.4 nM
IC50 (HDAC1 [6]; HDAC1 IC50, preincubation 60 min, preincubation time 60 min at 20°C): 48.3 nM
IC50 (HDAC1 [6]; HDAC1 IC50, preincubation 120 min, preincubation time 120 min at 20°C): 35.6 nM
IC50 (HDAC3/NcoR2): 310 ± 7.8 nM
IC50 (HDAC1 [7]): 68.6 ± 10.4 nM
